Data: patent US7071165B2, “LHRH antagonist peptides” (Indiana University Research and Technology Corporation, priority 1995, dated 2006)

These substances were tested on ovulation in female rats (assay: Anti-ovulatory activity (AOA) in vivo assay in rats). Settings: dose 1 μg per rat.
Set-up: species or system rat
Description: As used herein, “LHRH antagonist peptide” is intended to include peptides and peptide analogs which inhibit LHRH activity (i.e., has “LHRH antagonist activity”) in vivo or in vitro. Candidate LHRH antagonist peptides can be assayed, for example, in the animal model described in Corbin and Beattie, Endocrine Res. Commun. 2:1 (1975) (and see infra). In this assay, the LHRH antagonistic activity of a candidate compound is assayed by measuring the antiovulatory activity (AOA) of the compound in rats.
Anti-ovulatory activity (AOA) was measured by an in vivo assay in rats, as described in Corbin and Beattie, Endocrine Res. Commun. 2:1 (1975). In brief, female rats are injected with a candidate LHRH antagonist on the day of proestrus; in general, the candidate LHRH antagonist was dissolved in 0.1% DMSO. The ability of the candidate peptide to inhibit ovulation is measured by determining the number of rats which ovulate. A candidate peptide is considered to have LHRH antagonist qualities if it inhibits ovulation in at least 50% of the treated rats at a dose of 5 μg per rat. Preferred LHRH antagonists inhibit ovulation in at least 50% of rats at a dose of 2 μg per rat, more preferably at a dose of […], and still more preferably at a dose of 0.5 μg per rat.

Row | Substance | AO activity (AOA): rats which ovulate / rats treated
1 | Ac-D-Nal^1, 4-Cl-D-Phe^2, D-Pal^3, D-Arg^6, Orn(COCH2SMe)^8, D-Ala^10-LHRH.2TFA [Compound 3994] | 6/8@1.00
2 | Ac-D-Nal^1, 4-Cl-D-Phe^2, D-Pal^3, Lys(iPr)^5, D-Trp^6, Trp^7,Orn^8, D-Ala^10-LHRH.TFA [Compound 3855] | 4/8@1.0
3 | Ac-D-Nal^1, 4-Cl-D-Phe^2, D-Pal^3, D-Lys^6, Lys(iPr)^8, D-Ala^10-LHRH.TFA [Compound 3505] | 5/8@1 μg
4 | Ac-D-Nal^1, 4-Cl-D-Phe^2, D-Pal^3, Cit^5, D-Cit^6, Lys(iPr)^8, D-Ala^10-LHRH.TFA [Compound 3431] | 6/8@1 μg
5 | Ac-D-Nal^1, 4-Cl-D-Phe^2, D-Pal^3, D-Lys(AcGly)^6, Lys(iPr)^8, D-Ala^10-LHRH.TFA [Compound 3759] | 5/8@1.0
6 | Ac-D-Nal^1, 4-Cl-D-Phe^2, D-Pal^3, D-Lys(2-pyrimidylthio)acetic)^6, Lys(iPr)^8, D-Ala^10-LHRH.TFA [Compound 3960] | 5/8@1.00
7 | Ac-D-Nal^1, 4-Cl-D-Phe^2, D-Pal^3,D-Lys(Mts)^6, Lys(iPr)^8, D-Ala^10-LHRH.TFA [Compound 3761] | 7/8@1.0
8 | Ac-D-Nal^1, 4-Cl-D-Phe^2, D-Pal^3, Lys(ClNic)^5, D-Lys(ClNic)^6, Lys(iPr)^8, D-Ala^10-LHRH.2TFA [Compound 3544] | 6/8@1 μg
9 | Ac-D-Nal^1, 4-Cl-D-Phe^2, D-Pal^3, D-Lys(ONic)^6, Lys(iPr)^8, D-Ala^10-LHRH.TFA [Compound 3507] | 1/8@μg
10 | Ac-D-Nal^1, 4-Cl-D-Phe^2, D-Trp^3, D-Arg^6, Lys(COCH2Br)^8, D-Ala^10-LHRH.TFA [Compound 3926] | 6/8@1.0
11 | Ac-D-Pal^1, 4-Cl-D-Phe^2, D-Pal^3, D-Pal(iPr)^6, Lys(iPr)^8, D-Ala^10-LHRH.2TFA [Compound 3804] | 8/8@1.0
12 | Ac-D-Nal^1, 4-Cl-D-Phe^2, D-Pal^3, D-Glu(Dea)^6, Lys(iPr)^8, D-Ala^10-LHRH.TFA [Compound 3543] | 6/8@1 μg
13 | Ac-D-Nal^1, 4-Cl-D-Phe^2, D-Pal^3, D-Lys(3-Δ-Pro)^6, Lys(iPr)^8, D-Ala^10-LHRH-TFA [Compound 3721] | 4/8@1.0
14 | Ac-D-Nal^1, 4-Cl-D-Phe^2, D-Pal^3, D-Pal(N—O)^6, Lys(iPr)^8, D-Ala^10-LHRH.TFA [Compound 3786] | 4/8@1.0
15 | Ac-D-Nal^1, 4-Cl-D-Phe^2, D-Pal^3, D-Orn(COCH2S^+Me2)^6, D-Ala^10-LHRH.2TFA [Compound 4013] | 0/8@1.00
16 | Ac-D-Nal^1, 4-Cl-D-Phe^2, D-Pal^3, D-Pal(CH2COOH)^6, Lys(iPr)^8, D-Ala^10-LHRH.TFA [Compound 3770] | 6/8@1.0
17 | Ac-D-Qal^1, 4-Cl-D-Phe^2, D-Pal^3, D-Lys(Onic)^6, Lys(iPr)^8, D-Ala^10-LHRH.TFA [Compound 3801] | 8/8@1.0
18 | Ac-D-Nal^1, 4-Cl-D-Phe^2, D-Pal^3, D-Arg^6, Dap(COCH2S^+Me2)^8, D-Ala^10-LHRH.2TFA [Compound 4023] | 0/8@1.00
19 | Ac-D-Nal^1, 4-Cl-D-Phe^2, D-Pal^3, D-Glu(CSer)^6, Lys(iPr)^8, D-Ala^10-LHRH.2TFA [Compound 3550] | 6/8@1 μg
20 | Ac-Sar^1, 4-Cl-D-Phe^2, L-1-Nal^3, D-Pal(iPr)^6, Lys(iPr)^8, D-Ala^10-LHRH.2TFA [Compound 3773] | 7/8@1.0

Same assay, conditions: rat, in vivo

Row | Substance | AO activity (AOA), in words
21 | Ac-D-Nal^1, 4-Cl-D-Phe^2, D-Pal^3, D-Lys(ONic)^6, Lys(iPr)^8, D-Ala^10-LHRH.TFA [Compound 3507] | high AOA
22 | Ac-D-Nal^1, 4-Cl-D-Phe^2, D-Pal^3, D-Arg^6, Dap(COCH2S^+Me2)^8, D-Ala^10-LHRH.2TFA [Compound 4023] | effective
